Data: patent EP4736876A1, “DRUG COMBINATION CONTAINING PD-L1 SMALL MOLECULE INHIBITOR AND USE THEREOF” (Beijing Maxinovel Pharmaceuticals Co., Ltd., priority 2023, dated 2025)

Experiments:
4T1 cells = experiment: Orthotopic 4T1 breast cancer model with tumor resection, survival study (Example 3, paclitaxel combination); assay type: in vivo, BALB/c mice; conditions: day 38; Compound of Formula I 60 mg/kg PO BID; Paclitaxel 6 mg/kg IP Q2D; orthotopic tumors resected 13 days after inoculation; n=10
Experimental: Experimental animals: 50 BALB/c mice, female, 6 to 8 weeks old, weighing 18 to 20 g. Zhejiang Vital River Laboratory Animal Technology Co., Ltd., Tongxiang Branch (SCKX (Zhejiang) 2021-0006); Certificate No.: 20220728Abzz0600000694.
Drugs: Compound of Formula I, manufacturer: Pharmaron (Tianjin) Process Development and Manufacturing Co., Ltd., batch number: TJ-MAX-10181-A-2; Paclitaxel (6 mg/mL), manufacturer: Corden Pharma Latina S.P.A., batch number: 2D07013.
(§1) Murine 4T1 cells were grown adherently in vitro under culture conditions of RPMI-1640 medium supplemented with 10% heat-inactivated fetal bovine serum at 37°C with 5% CO2. Cells were passaged 2 to 3 times per week. When the cells were in the exponential growth phase, the cells were harvested, counted, and inoculated into the fourth fat pad on the left abdomen of BALB/c mice.
50 µL of 1 × 10^5 4T1 cell suspension was inoculated into the fourth fat pad on the left abdomen of BALB/c mice. […]
The experimental indicators were examined to determine whether tumor growth could be inhibited, delayed, or cured. Tumors were measured three times per week using a digital vernier caliper. The tumor volume was calculated using the formula: V = 0.5a × b^2, where a and b represent the long and short diameters of the tumor, respectively. […]

GL-261-luc cells = experiment: Mouse glioma GL-261-luc brain orthotopic xenograft tumor model, pharmacodynamics and survival (Example 4, temozolomide combination); assay type: in vivo, C57 BL/6 mice; conditions: Compound of Formula I 120 mg/kg PO BID, TMZ 7.5 mg/kg IP BIW; for TGI (%)/Day 14: Day 14, based on fluorescence signal intensity vs vehicle control; for Total Fluorescence Intensity at the Beginning of the Experiment/Day 0: baseline Day 0; for mice showed > 10% body weight loss: by day 14 of administration, 9 mice per group; for Body Weight of Animals at the End of the Experiment / Relative Body Weight Change of Animals at the End of the Experiment / Body Weight of Animals at the Beginning of the Experiment: mean, n=9; for Body Weight of Animals at the Beginning of the Experiment: baseline; for increase in life span (ILS): median survival vs vehicle control, end of experiment
Experimental: Experimental animals: 57 C57 BL/6 mice, female, 6 to 8 weeks old, weighing 16 to 20 g, purchased from Shanghai Jihui Laboratory Animal Care Co., Ltd.
Drugs: Compound of Formula I [drawing 5] manufacturer: Pharmaron (Tianjin) Process Development and Manufacturing Co., Ltd., batch number: TJ-MAX-10181-A-2; TMZ (Temozolomide), manufacturer: Shanghai Aladdin Biochemical Technology Co., Ltd., batch number: J2227749.
Murine GL-261-luc cells were grown adherently in vitro under culture conditions of DMEM medium supplemented with 10% heat-inactivated fetal bovine serum and 0.6 mg/mL G418 (stock concentration: 100 mg/mL), at 37°C with 5% CO2. Cells were passaged 2 to 3 times per week. When cells were in the exponential growth phase, the cells were harvested, counted, and inoculated into the right caudate nucleus of C57 BL/6 mice.
GL-261-luc cells in logarithmic growth phase were harvested at full confluence with viability guaranteed 90% or more. Mice were anesthetized via intraperitoneal injection of 41.6 mg/kg Zoletil according to body weight. 1 × 10^5/2 µL/mouse cells was orthotopically inoculated into the right caudate nucleus of each mouse, and the skin was sutured with 4/0 suture. After recovery, mice were returned to their cages. 4 days after inoculation, mice were imaged and grouped using the IVIS Lumina XR small animal imager. Fluorescence signal intensity was used for stratified randomization into 4 groups (9 mice per group). Administration began on the day of grouping, with daily weight monitoring and observation of mouse growth status. Mice were imaged twice weekly. Table 11: Animal Experiment Grouping and Administration Regimen
The experimental indicators were examined to determine whether tumor growth could be inhibited, delayed, or cured. According to the experimental design, tumor growth was monitored by imaging mice using the IVIS Lumina XR small animal imager. The tumor growth inhibition efficacy of the compounds was evaluated using TGI (Tumor Growth Inhibition), where TGI (%) = [1 - (TFtreatment-Dn - TFtreatment-D0) / (TFcontrol-Dn - TFcontrol-D0)] × 100% (where TFtreatment-D0 represents the fluorescence signal intensity of the treatment group on day 0, TFcontrol-D0 represents the fluorescence signal intensity of the control group on day 0; TFtreatment-Dn represents the fluorescence signal intensity of the treatment group on day n, and TFcontrol-Dn represents the fluorescence signal intensity of the control group on day n). The calculation formula for an increase in life span (ILS) is: ILS = (MSTTreatment - MSTControl) / MSTControl × 100% (where MSTTreatment is the median survival days for the treatment group, and MSTControl is the median survival days for the control group).
Tumor size was analyzed using the statistical software GraphPad Prism based on fluorescence signal intensity values. Two-way ANOVA was used to compare whether there were significant differences in fluorescence signal intensity between the control group and each treatment group, with p < 0.05 considered statistically significant and p < 0.01 considered highly statistically significant.

4T1 hPD-L1 cells [1] = experiment: Pharmacodynamic study on mouse breast cancer 4T1 hPD-L1 model, subcutaneous (Example 1, capecitabine combination); assay type: in vivo, BALB/c mice; conditions: Compound of Formula I 120 mg/kg p.o. BID, Capecitabine 100 mg/kg p.o. QD; for TGI (%)/Day 21: Day 21 vs vehicle control; for Tumor Volume at the Beginning of the Experiment/Day 0: baseline on day of grouping
Experimental: Experimental animals: 100 BALB/c mice, female, 6 to 8 weeks old, weighing 18 to 21 g, purchased from Shanghai Jihui Laboratory Animal Care Co., Ltd. (SCXK (Shanghai) 2020-0009; Certificate No.: 20220009001922).
Drugs: Compound of Formula I [drawing 4] manufacturer: Pharmaron (Tianjin) Process Development and Manufacturing Co., Ltd., batch number: TJ-MAX-10181-A-2; Capecitabine, manufacturer: Shanghai Yuanye Bio-Technology Co., Ltd., batch number: J10J12L137020.
as §1, with “4T1 hPD-L1” for “4T1”, “serum and 4 µg/mL Blasticidin (Beyotime/ST018-1mL),” for “serum”, “When” for “When the”, “subcutaneously” for “into the fourth fat pad”, “right dorsal side” for “left abdomen”
100 µL of 1 × 10^6 4T1 hPD-L1 cell suspension was inoculated subcutaneously on the right dorsal side of BALB/c mice. On the 6th day after inoculation, suitable animals were selected based on tumor volume and body weight, and stratified randomization was used to divide them into 4 groups, with 10 mice per group. Administration began on the day of grouping. Table 1: Animal Experiment Grouping and Administration Regimen
(§2) The experimental indicators were examined to determine whether tumor growth could be inhibited, delayed, or cured. Tumors were measured three times per week using a digital vernier caliper. The tumor volume was calculated using the formula: V = 0.5a × b^2, where a and b represent the long and short diameters of the tumor, respectively. The tumor growth inhibition efficacy of compounds was calculated as: TGI (%) = [1 - (TVi - TV0) / (TVVi - TVV0)] × 100% (where TV0 represents the mean volume of the treatment group on day 0, TVV0 represents the mean volume of the control group on day 0; TVi represents the mean volume of the treatment group on day i, and TVVi represents the mean volume of the control group on day i).
(§3) If the animals' health condition continued to deteriorate, or the tumor volume exceeded 2,000 mm^3, or severe illness or pain occurred, euthanasia was required. In the following circumstances, the veterinarian was notified and euthanasia was performed: • (1) Significant emaciation with body weight loss exceeding 20%; • (2) Inability to freely access food and water; • (3) The experiment was terminated when the average tumor volume in the control group reached 2000 mm^3.
(§4) GraphPad Prism 8.0 software was used for plotting. Changes in tumor volume in mice were analyzed by Two-way ANOVA and compared with the vehicle control group using Dunnett's method, with P < 0.05 considered statistically significant.

4T1 hPD-L1 cells [2] = experiment: Pharmacodynamic study on mouse breast cancer 4T1 hPD-L1 model, subcutaneous (Example 2, celecoxib combination); assay type: in vivo, BALB/c mice; conditions: Compound of Formula I 120 mg/kg p.o. BID, Celecoxib 60 mg/kg p.o. BID; for TGI (%)/Day 21: Day 21 vs vehicle control; for Tumor Volume at the End of the Experiment/Day 21 / Tumor Volume at the Beginning of the Experiment/Day 0 / Body Weight of Animals at the Beginning of the Experiment / Body Weight of Animals at the End of the Experiment / Relative Body Weight Change of Animals at the End of the Experiment: mean; for Tumor Volume at the End of the Experiment/Day 21 / Tumor Volume at the Beginning of the Experiment/Day 0: n=10; for Tumor Volume at the Beginning of the Experiment/Day 0: baseline on day of grouping; for Body Weight of Animals at the Beginning of the Experiment: baseline
Experimental: Experimental animals: 100 BALB/c mice, female, 6 to 8 weeks old, weighing 18 to 21 g, purchased from: Shanghai Jihui Laboratory Animal Care Co., Ltd. (SCXK (Shanghai) 2020-0009; Certificate No.: 20220009001922).
Drugs: Compound of Formula I, manufacturer: Pharmaron (Tianjin) Process Development and Manufacturing Co., Ltd., batch number: TJ-MAX-10181-A-2; Celecoxib, manufacturer: Shanghai Yuanye Bio-Technology Co., Ltd., batch number: D11A6S2152.
as §1, with “4T1 hPD-L1” for “4T1”, “serum and 4 µg/mL Blasticidin (Beyotime/ST018-1mL),” for “serum”, “When” for “When the”, “subcutaneously” for “into the fourth fat pad”, “right dorsal side” for “left abdomen”
100 µL of 1 × 10^6 4T1 hPD-L1 cell suspension was inoculated subcutaneously on the right dorsal side of BALB/c mice. On the seventh day after inoculation, stratified randomization was used to divide into 4 groups (10 mice per group) based on tumor volume and body weight. Administration began on the day of grouping. Table 5: Animal Experiment Grouping and Administration Regimen
as §2, §3, §4

Row | Structure (SMILES) | survival rate of mice (4T1 cells) [%] | TGI (%)/Day 14 (GL-261-luc cells) [%] | Total Fluorescence Intensity at the End of the Experiment/Day 14 (GL-261-luc cells) [E + 09 p/s] | Total Fluorescence Intensity at the Beginning of the Experiment/Day 0 (GL-261-luc cells) [E + 07 p/s] | mice showed > 10% body weight loss (GL-261-luc cells) [mice] | Body Weight of Animals at the End of the Experiment (GL-261-luc cells) [g] | Relative Body Weight Change of Animals at the End of the Experiment (GL-261-luc cells) [%] | Body Weight of Animals at the Beginning of the Experiment (GL-261-luc cells) [g] | increase in life span (ILS) (GL-261-luc cells) [%] | TGI (%)/Day 21 (4T1 hPD-L1 cells [1]) [%] | Tumor Volume at the End of the Experiment/Day 21 (4T1 hPD-L1 cells [1]; mean, n=10, Day 21) [mm^3] | Tumor Volume at the Beginning of the Experiment/Day 0 (4T1 hPD-L1 cells [1]; mean, n=10) [mm^3] | Body Weight of Animals at the Beginning of the Experiment (4T1 hPD-L1 cells [1]; mean, baseline) [g] | TGI (%)/Day 21 (4T1 hPD-L1 cells [2]) [%] | Tumor Volume at the End of the Experiment/Day 21 (4T1 hPD-L1 cells [2]) [mm^3] | Tumor Volume at the Beginning of the Experiment/Day 0 (4T1 hPD-L1 cells [2]) [mm^3] | Body Weight of Animals at the Beginning of the Experiment (4T1 hPD-L1 cells [2]) [g] | Body Weight of Animals at the End of the Experiment (4T1 hPD-L1 cells [2]) [g] | Relative Body Weight Change of Animals at the End of the Experiment (4T1 hPD-L1 cells [2]) [%]
1 | CC(=O)O[C@H]1C(=O)[C@@]2(C)[C@H]([C@H](OC(=O)c3ccccc3)[C@]3(O)C[C@H](OC(=O)[C@H](O)[C@@H](NC(=O)c4ccccc4)c4ccccc4)C(C)=C1C3(C)C)[C@]1(OC(C)=O)CO[C@@H]1C[C@@H]2O [Paclitaxel] | 10 | – | – | – | – | – | – | – | – | – | – | – | – | – | – | – | – | – | –
2 | Cc1c(/C=C/c2cc(CN[C@@](C)(CO)C(=O)O)ccc2C(F)(F)F)cccc1-c1ccccc1 [Compound of Formula I] | 0 | 40.52 | 1.18 | 2.75 | 2 | 18.29 | -3.08 | 18.89 | 20 | 41.88 | 1103.30 | 125.52 | 24.20 | 32.78 | 921.91 | 160.33 | 23.04 | 24.85 | 8.01
3 | Cn1nnc2c(C(N)=O)ncn2c1=O [TMZ, Temozolomide] | – | 35.51 | 1.27 | 2.76 | 2 | 19.40 | -0.63 | 19.51 | 25 | – | – | – | – | – | – | – | – | – | –
4 | Cc1ccc(-c2cc(C(F)(F)F)nn2-c2ccc(S(N)(=O)=O)cc2)cc1 [Celecoxib] | – | – | – | – | – | – | – | – | – | – | – | – | – | 83.90 | 341.70 | 159.34 | 22.68 | 23.68 | 4.48
5 | CCCCCOC(=O)Nc1nc(=O)n([C@@H]2O[C@H](C)[C@@H](O)[C@H]2O)cc1F [Capecitabine] | – | – | – | – | – | – | – | – | – | 56.16 | – | 125.17 | – | – | – | – | – | – | –
